Common to all, as to test: NCI-60 cell line screen, 48 h
Experiment [1] deals with A498 renal.
In experiment [2] the test system is CAKI-1 renal.
For experiment [3], the system named is CCRF-CEM leukemia.
Experiment [4] relates to HCC-2998 colon.
The test system of experiment [5] is HCT-15 colon.
The subject of experiment [6] is IGROV1 ovarian.
Experiment [7] has as its system LOX IMVI melanoma.
The test system of experiment [8] is NCI-H226 lung.
The test system of experiment [9] is NCI-H23 lung.
The subject of experiment [10] is SK-MEL-2 melanoma.
In experiment [11] the test system is SNB-75 CNS.
Experiment [12] concerns SW-620 colon.
For experiment [13], the system named is T-47D breast.

Structures are written as SMILES.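 A five-concentration, 48-hour dose response in 96-well plates underlies each endpoint, interpolated linearly between surrounding concentrations. The concentration for full growth arrest is given as TGI.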

Turning to `CCOC(=O)CCC(NC(=O)c1ccc(OCc2ccc3nc(OC)c(OC)nc3c2)cc1)C(=O)OCC` (stereo not drawn), the TGI is greater than 100 µM in [1]; greater than 100 µM in experiment [2]; 93.5 µM in experiment [3]; greater than 100 µM in experiment [4]; greater than 100 µM in experiment [5]; greater than 100 µM in experiment [6]. Further, the TGI was greater than 100 µM in experiment [7]; greater than 100 µM in [8]; greater than 100 µM in experiment [9]; 74.6 µM in experiment [10]; greater than 100 µM in experiment [11]; greater than 100 µM in experiment [12]. Besides, the TGI in experiment [13] is greater than 100 µM.
For `CC(C)CNC(=O)c1c(NC(=O)c2ccccc2)sc2[nH]c(=O)n(-c3ccccc3)c(=O)c12`, the TGI in experiment [1] is greater than 71.2 µM; in experiment [2], greater than 80.9 µM; in [3], greater than 89.6 µM; in experiment [4], greater than 100 µM; in experiment [5], greater than 100 µM; in experiment [6] it was greater than 100 µM. Moreover, the TGI is greater than 100 µM in [7]; greater than 100 µM in experiment [8]; greater than 100 µM in experiment [9]; 68.6 µM in experiment [10]; 48.3 µM in experiment [11]; greater than 100 µM in experiment [12]. In addition, the TGI in experiment [13] was greater than 100 µM.
As for `CC(=O)OCC1=C2C(OC(=O)C(C)C)CC3(COC(C)=O)OC3/C=C\C3(C)OC3C2OC1=O` (stereo not drawn), the TGI in experiment [1], in experiment [2], in [3], in experiment [4], in experiment [5] and in experiment [6] was greater than 100 µM in each case. For the same compound, the TGI in experiment [7], in experiment [8], in experiment [9], in experiment [10], in experiment [11] and in experiment [12] was greater than 100 µM each time. Further, the TGI in [13] is greater than 100 µM.
As to `[O-]/N=N\c1on[n+](CCc2ccccc2)c1Cc1c(/N=N/[O-])on[n+]1CCc1ccccc1`, the TGI was greater than 100 µM in experiment [1]; greater than 100 µM in experiment [2]; greater than 100 µM in experiment [3]; greater than 100 µM in experiment [4]; greater than 100 µM in [5]; 70 µM in experiment [6]. In addition, the TGI was greater than 100 µM in experiment [7]; 98.3 µM in experiment [8]; 61.3 µM in experiment [9]; 94 µM in experiment [10]; 40.2 µM in [11]; greater than 100 µM in [12]. For the same compound, the TGI in experiment [13] is greater than 100 µM.
With `CC(=O)[C@H]1[C@@H](OCc2ccccc2)O[N+]([O-])=C(C)[C@@H]1c1ccccc1`, the TGI in experiment [1] is greater than 100 µM; in experiment [2], 52 µM; in [3], 44.1 µM; in experiment [4], greater than 100 µM; in experiment [5] it was 75 µM; in experiment [6], greater than 100 µM. Also, the TGI in experiment [7] is 45.7 µM; in experiment [8], greater than 100 µM; in experiment [9] it was greater than 100 µM; in experiment [10], greater than 100 µM; in [11] it was greater than 100 µM; in experiment [12], 31.7 µM. The same compound yielded a TGI in experiment [13] of 58.1 µM.
Turning to `Cc1ccc(C)c(NC(=O)/C(=N\N)C(c2cnc3ccc([N+](=O)[O-])cc3n2)[N+](=O)[O-])c1` (stereo not drawn), the TGI was greater than 100 µM in experiment [1]; greater than 100 µM in [2]; 25.9 µM in experiment [3]; greater than 100 µM in experiment [4]; greater than 100 µM in experiment [5]; greater than 100 µM in experiment [6]. Moreover, the TGI in experiment [7], in experiment [8], in experiment [9], in experiment [10], in [11] and in [12] was greater than 100 µM in each case. For the same compound, in experiment [13], the TGI is greater than 100 µM.
Regarding `COC(=O)CCN1CCN(CCO)CC1C` (stereo not drawn), the TGI in experiment [1], in experiment [2], in [3], in [4], in experiment [5] and in experiment [6] was greater than 10 µM each time. Further, the TGI in experiment [7], in [8], in experiment [9], in experiment [10], in experiment [11] and in experiment [12] was greater than 10 µM throughout. In addition, the TGI in [13] was greater than 10 µM.
With `C=CCC1(O)C(=O)OC2C(O)COC21O` (stereo not drawn), the TGI in experiment [1], in experiment [2], in experiment [3], in experiment [4], in [5] and in experiment [6] was greater than 100 µM each time. The TGI in experiment [7], in experiment [8], in experiment [9], in [10], in experiment [11] and in experiment [12] was greater than 100 µM throughout. In [13], this compound registered a TGI greater than 100 µM.
In the case of `Cn1c2c(c3ccccc31)CC(=O)N1CCCC(C1)CC21OCCO1` (stereo not drawn), the TGI in experiment [1], in experiment [2], in experiment [3], in experiment [4], in [5] and in [6] was greater than 100 µM throughout. The TGI in experiment [7], in experiment [8], in experiment [9], in experiment [10], in experiment [11] and in experiment [12] was greater than 100 µM throughout. The compound further returned a TGI in experiment [13] greater than 100 µM.
In the case of `O=CN1CCN(C(=O)c2ccc(Cl)cc2)C1=S`, the TGI was 29.3 µM in experiment [1]; 27 µM in [2]; 37.4 µM in [3]; 33.9 µM in [4]; 55.8 µM in experiment [5]; 28.5 µM in experiment [6]. In addition, the TGI came out at 24.5 µM in experiment [7]; 80 µM in [8]; 53.6 µM in [9]; 36 µM in experiment [10]; 36.8 µM in experiment [11]; 36.5 µM in [12]. The same compound showed a TGI in [13] of 36.4 µM.
In the case of `S=C1NCCN1C(=S)NC1CCCCC1`, the TGI in [1] is 38.7 µM; in experiment [2] it was 74.5 µM; in experiment [3], greater than 100 µM; in experiment [4], 42.3 µM; in experiment [5], 89.7 µM; in experiment [6], greater than 100 µM. For the same compound, the TGI in experiment [7] is greater than 100 µM; in experiment [8], 75.2 µM; in [9], 59.2 µM; in experiment [10], 96 µM; in [11] it was 72.1 µM; in experiment [12], greater than 100 µM. This compound returned a TGI in experiment [13] greater than 100 µM.
For `Nc1ncnc2c1ccn2CC=C(CO)CO`, the TGI in [1], in experiment [2], in [3], in [4], in experiment [5] and in [6] was greater than 100 µM throughout. Besides, the TGI in experiment [7], in experiment [8], in [9], in experiment [10], in experiment [11] and in experiment [12] was greater than 100 µM each time. The compound further returned a TGI in experiment [13] greater than 100 µM.
In the case of `COC1=CCC2=C(CCN(C(=O)C3CC3)C2Cc2ccc(OC)c(O)c2)C1` (stereo not drawn), the TGI is greater than 100 µM in [1]; greater than 100 µM in [2]; greater than 100 µM in experiment [3]; greater than 100 µM in experiment [4]; 59.6 µM in experiment [5]; greater than 100 µM in experiment [6]. Further, the TGI is greater than 100 µM in [7]; greater than 100 µM in [8]; 66.1 µM in experiment [9]; greater than 100 µM in experiment [10]; 67.4 µM in [11]; greater than 100 µM in [12]. In experiment [13], this compound displayed a TGI of 70.9 µM.
For `O=CNNC(=O)CSc1nc2ccc(I)cc2c(=O)n1Cc1ccccc1`, the TGI was greater than 100 µM in experiment [1]; 57.5 µM in [2]; greater than 100 µM in [3]; 81.6 µM in [4]; greater than 100 µM in experiment [5]; greater than 100 µM in experiment [6]. Besides, the TGI in [7] was 69.1 µM; in [8], greater than 100 µM; in [9], 89.6 µM; in [10], 44.4 µM; in [11], greater than 100 µM; in experiment [12], greater than 100 µM. In addition, in [13], the TGI is greater than 100 µM.
For `CCn1c(SCC(=O)NNC(=S)Nc2ccc(Cl)cc2)nc2ccccc2c1=O`, the TGI in [1] is 98.3 µM; in experiment [2], greater than 100 µM; in experiment [3], greater than 100 µM; in [4] it was greater than 100 µM; in [5], greater than 100 µM; in experiment [6], greater than 100 µM. Besides, the TGI in experiment [7], in [8], in experiment [9], in [10], in experiment [11] and in [12] was greater than 100 µM throughout. The same compound yielded a TGI in [13] of 83 µM.
Consider `CN(C)C=NCc1ccc2c(c1)OCO2`, for which the TGI in experiment [1], in experiment [2], in experiment [3], in [4], in [5] and in experiment [6] was greater than 100 µM throughout. Moreover, the TGI in experiment [7], in [8], in experiment [9], in [10], in experiment [11] and in experiment [12] was greater than 100 µM each time. In [13], this compound had a TGI greater than 100 µM.
Take `Clc1ccc(/C=C/c2nc(-c3ccc(Cl)cc3)cn3c2nc2ccccc23)cc1`: the TGI in experiment [1], in experiment [3], in experiment [4], in experiment [5], in experiment [6] and in experiment [7] was greater than 100 µM throughout. Besides, the TGI in experiment [8], in [9], in experiment [10], in [12] and in experiment [13] was greater than 100 µM in each case.
As for `CC(=O)c1c2c(cc3c1CC1(C3)Cc3ccc4c(c3C1=O)CCC4)CCC2` (stereo not drawn), the TGI in [1], in [2], in experiment [3], in experiment [4], in experiment [5] and in [6] was greater than 100 µM each time. The TGI in experiment [7], in experiment [8], in experiment [9], in experiment [10], in [11] and in [12] was greater than 100 µM in each case. Also, the TGI in experiment [13] is greater than 100 µM.
As to `COc1cc(CCC(=O)O)c2cc3ccccc3cc2c1O`, the TGI in experiment [1] stood at 99.5 µM; in experiment [2], 33.8 µM; in experiment [3] it was 13.8 µM; in experiment [4] it was 65.2 µM; in [5] it was 43.9 µM; in experiment [6] it was 41.1 µM. Also, the TGI in [7] worked out at 53.5 µM; in experiment [8], 78 µM; in experiment [9], 51.6 µM; in experiment [10], 36.6 µM; in experiment [12] it was 51.5 µM; in experiment [13] it was 36.3 µM.
For the compound `c1ccc2c(c1)ncn2CCn1ccnc1`, the TGI in [1], in experiment [3], in [4], in experiment [5], in experiment [6] and in experiment [7] was greater than 100 µM throughout. Moreover, the TGI in experiment [8], in experiment [9], in experiment [10], in [11], in [12] and in [13] was greater than 100 µM throughout.
`O=S(=O)(c1ccccc1)[C@@H]1[C@H]2C=C[C@](CS)(O2)[C@H]1S(=O)(=O)c1ccccc1`: the TGI in [1] is greater than 100 µM; in experiment [2], 92.3 µM; in experiment [3], 8.33 µM; in experiment [4], greater than 100 µM; in experiment [5], 28.4 µM; in [6], greater than 100 µM. Moreover, the TGI is greater than 100 µM in experiment [7]; greater than 100 µM in [8]; greater than 100 µM in experiment [9]; greater than 100 µM in [11]; 30.6 µM in experiment [12]; greater than 100 µM in [13].

The values above are taken from PubChem BioAssay (NCI).
